Test results reported in ChEMBL document CHEMBL1201862, “PubChem BioAssay data set” (2004).
Activity calls are given as the source filed them.

Columns and labels:
[1] = A549 cell cytotoxicity, dose response, cytotoxicity control, plate reader, cherry-pick, antagonist series (AID 743412); type: functional, cell-based
[2] = target: T1, Protein RecA (Mycobacterium tuberculosis, UniProt P9WHJ3); assay: Fluorescence Cell-Free Homogeneous Dose Retest to Identify Inhibitors of RecA-Intein Splicing Activity. [Related pubchem assays (depositor defined):AID2097, AID2223, AID489010, AID492950]; type: functional
T1 sequence (P9WHJ3 whole entry): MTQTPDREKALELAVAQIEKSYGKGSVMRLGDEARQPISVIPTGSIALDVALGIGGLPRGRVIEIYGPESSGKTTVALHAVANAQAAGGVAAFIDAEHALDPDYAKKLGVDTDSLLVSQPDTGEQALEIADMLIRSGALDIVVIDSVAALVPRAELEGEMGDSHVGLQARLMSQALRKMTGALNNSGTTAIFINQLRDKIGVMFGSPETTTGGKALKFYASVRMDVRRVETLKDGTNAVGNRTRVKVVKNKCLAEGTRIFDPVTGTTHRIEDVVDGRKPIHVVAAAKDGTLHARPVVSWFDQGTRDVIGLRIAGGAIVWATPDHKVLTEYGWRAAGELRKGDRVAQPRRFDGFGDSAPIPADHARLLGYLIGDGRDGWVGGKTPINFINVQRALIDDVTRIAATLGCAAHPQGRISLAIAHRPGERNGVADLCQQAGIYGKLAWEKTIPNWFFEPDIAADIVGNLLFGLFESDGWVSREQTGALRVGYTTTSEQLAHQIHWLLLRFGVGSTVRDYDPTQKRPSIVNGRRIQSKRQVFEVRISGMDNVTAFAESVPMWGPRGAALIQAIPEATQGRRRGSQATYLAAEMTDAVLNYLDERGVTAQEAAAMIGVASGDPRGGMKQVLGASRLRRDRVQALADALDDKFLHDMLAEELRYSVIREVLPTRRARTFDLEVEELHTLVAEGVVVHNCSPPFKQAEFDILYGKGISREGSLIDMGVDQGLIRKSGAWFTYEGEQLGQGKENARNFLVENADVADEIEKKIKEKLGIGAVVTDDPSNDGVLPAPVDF

[3] = target: T2, Replicative DNA helicase DnaB (Mycobacterium tuberculosis, UniProt P9WMR3); assay: DnaB intein splicing inhibitors, dose response, biochemical, cell-free fluorescence (AID 449749); type: functional
T2 sequence (P9WMR3 whole entry): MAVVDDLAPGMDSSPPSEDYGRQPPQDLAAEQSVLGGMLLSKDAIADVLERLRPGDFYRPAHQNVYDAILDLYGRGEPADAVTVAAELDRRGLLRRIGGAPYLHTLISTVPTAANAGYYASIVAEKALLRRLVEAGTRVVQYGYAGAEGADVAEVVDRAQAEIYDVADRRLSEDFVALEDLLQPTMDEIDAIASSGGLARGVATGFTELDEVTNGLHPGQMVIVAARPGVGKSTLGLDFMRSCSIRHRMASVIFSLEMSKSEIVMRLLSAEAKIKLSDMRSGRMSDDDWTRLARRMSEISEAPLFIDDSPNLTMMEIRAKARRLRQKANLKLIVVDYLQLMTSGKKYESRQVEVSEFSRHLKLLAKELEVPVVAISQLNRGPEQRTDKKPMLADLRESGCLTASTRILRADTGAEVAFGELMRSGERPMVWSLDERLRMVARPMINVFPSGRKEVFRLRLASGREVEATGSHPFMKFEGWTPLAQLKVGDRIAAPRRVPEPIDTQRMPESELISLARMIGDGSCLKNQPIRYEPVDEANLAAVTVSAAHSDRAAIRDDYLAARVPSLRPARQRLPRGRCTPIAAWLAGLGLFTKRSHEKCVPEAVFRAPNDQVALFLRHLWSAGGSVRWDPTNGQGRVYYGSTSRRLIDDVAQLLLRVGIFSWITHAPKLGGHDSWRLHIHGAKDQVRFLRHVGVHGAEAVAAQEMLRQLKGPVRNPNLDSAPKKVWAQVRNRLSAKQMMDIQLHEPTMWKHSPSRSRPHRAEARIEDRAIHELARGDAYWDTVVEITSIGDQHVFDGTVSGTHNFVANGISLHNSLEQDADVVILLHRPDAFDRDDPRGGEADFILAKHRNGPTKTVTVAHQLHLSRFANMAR

[4] = target: T3, Leucine aminopeptidase (Plasmodium falciparum 3D7, UniProt Q8IL11); assay: P. falciparum M17LAP inhibitors, primary screen, biochemical, fluorogenic H-Leu-NHMec substrate, 1536-well (AID 1619); type: functional
T3 sequence (Q8IL11 whole entry): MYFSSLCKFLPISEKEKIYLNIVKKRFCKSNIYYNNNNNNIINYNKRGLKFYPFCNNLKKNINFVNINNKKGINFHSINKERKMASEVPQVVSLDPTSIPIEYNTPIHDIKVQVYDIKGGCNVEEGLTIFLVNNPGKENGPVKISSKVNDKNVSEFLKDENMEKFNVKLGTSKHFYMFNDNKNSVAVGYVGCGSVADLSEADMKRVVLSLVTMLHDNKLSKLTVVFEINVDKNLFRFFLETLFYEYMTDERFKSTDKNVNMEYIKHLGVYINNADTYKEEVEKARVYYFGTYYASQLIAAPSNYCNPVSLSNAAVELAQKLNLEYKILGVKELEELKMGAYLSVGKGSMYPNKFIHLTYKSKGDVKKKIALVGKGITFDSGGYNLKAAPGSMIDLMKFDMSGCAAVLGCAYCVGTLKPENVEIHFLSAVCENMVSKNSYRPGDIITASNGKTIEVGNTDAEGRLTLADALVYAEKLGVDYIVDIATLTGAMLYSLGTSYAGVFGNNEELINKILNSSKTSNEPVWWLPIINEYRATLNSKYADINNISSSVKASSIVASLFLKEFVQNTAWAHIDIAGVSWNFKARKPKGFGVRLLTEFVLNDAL

[5] = target: T4, Rac GTPase-activating protein 1 (Homo sapiens, UniProt Q9H0H5); assay: blockers of MgcRacGAP-driven Rac1 GTP hydrolysis – biochemical, ADP Hunter fluorescence, primary and confirmatory, confirmation (AID 624330); type: functional
T4 sequence (Q9H0H5 whole entry): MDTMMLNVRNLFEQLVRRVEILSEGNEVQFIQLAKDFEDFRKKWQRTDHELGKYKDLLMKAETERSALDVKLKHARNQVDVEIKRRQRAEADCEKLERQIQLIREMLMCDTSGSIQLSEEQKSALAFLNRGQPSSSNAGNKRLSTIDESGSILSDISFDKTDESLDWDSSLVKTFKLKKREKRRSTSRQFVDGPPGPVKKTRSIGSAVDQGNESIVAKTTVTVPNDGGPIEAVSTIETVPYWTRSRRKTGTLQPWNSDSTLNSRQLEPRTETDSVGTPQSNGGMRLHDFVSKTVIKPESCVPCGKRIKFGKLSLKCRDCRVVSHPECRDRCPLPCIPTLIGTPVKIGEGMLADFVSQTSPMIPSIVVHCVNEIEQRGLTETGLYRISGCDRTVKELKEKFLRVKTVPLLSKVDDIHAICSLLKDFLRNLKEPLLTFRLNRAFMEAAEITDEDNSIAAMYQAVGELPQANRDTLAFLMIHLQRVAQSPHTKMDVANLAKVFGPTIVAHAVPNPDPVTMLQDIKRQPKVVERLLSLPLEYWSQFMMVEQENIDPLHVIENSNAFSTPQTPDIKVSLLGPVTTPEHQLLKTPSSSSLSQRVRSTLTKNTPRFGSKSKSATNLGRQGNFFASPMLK

[6] = viability loss in HeLa cells – cytotoxicity control for MgcRacGAP inhibitor project, dose response (AID 624300); type: functional
[7] = tested on: HEK293; assay: EBV LMP1 TES2 canonical NF-kB signalling blockers – cell-based, HEK293, luciferase, cherry-pick, dose response (AID 588343); type: functional; conditions: Homo sapiens
[8] = Vero E6 cell cytotoxicity, dose response, cytotoxicity control for non-replicating M. tuberculosis project, secondary assay (AID 492998); type: functional, VeroE6; conditions: Vero C1008
[9] = target: T5, Histone-lysine N-methyltransferase NSD2 (Homo sapiens, UniProt O96028); type: biochemical
T5 sequence (O96028 whole entry): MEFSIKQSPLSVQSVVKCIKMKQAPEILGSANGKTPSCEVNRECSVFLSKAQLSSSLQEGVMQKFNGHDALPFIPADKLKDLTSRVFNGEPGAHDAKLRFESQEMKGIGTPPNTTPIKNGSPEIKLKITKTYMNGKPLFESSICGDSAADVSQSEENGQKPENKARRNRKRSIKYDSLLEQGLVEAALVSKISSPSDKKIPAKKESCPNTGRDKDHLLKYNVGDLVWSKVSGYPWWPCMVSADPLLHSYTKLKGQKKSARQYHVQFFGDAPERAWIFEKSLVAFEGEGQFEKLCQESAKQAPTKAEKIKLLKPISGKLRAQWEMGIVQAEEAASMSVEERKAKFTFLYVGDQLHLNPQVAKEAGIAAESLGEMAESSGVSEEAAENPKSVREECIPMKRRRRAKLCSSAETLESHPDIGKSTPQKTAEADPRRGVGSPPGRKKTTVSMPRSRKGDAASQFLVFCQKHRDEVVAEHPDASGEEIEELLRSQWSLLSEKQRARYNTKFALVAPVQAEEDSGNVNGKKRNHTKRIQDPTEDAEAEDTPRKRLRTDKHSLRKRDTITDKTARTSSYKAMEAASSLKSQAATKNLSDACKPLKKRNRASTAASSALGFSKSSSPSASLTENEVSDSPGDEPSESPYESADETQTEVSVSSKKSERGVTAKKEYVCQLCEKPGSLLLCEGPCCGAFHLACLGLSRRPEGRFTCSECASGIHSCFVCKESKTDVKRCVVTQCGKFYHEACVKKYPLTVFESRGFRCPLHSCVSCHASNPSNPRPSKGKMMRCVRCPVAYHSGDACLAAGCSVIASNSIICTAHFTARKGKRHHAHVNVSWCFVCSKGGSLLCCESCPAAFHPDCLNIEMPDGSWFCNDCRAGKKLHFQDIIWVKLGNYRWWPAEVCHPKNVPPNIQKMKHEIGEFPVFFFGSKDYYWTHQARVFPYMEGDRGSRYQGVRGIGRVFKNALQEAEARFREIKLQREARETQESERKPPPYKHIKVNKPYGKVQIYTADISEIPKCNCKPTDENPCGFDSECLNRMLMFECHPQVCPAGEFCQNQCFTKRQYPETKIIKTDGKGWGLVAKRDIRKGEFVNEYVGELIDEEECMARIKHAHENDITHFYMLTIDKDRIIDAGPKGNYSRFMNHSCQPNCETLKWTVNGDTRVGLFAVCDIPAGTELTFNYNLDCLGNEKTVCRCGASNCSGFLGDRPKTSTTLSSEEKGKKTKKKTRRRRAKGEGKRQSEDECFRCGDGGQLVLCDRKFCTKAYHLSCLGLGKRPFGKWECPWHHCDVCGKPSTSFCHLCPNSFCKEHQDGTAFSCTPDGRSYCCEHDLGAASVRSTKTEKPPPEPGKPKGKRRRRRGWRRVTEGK

[10] = target: Nonstructural protein 1 (Influenza A virus, UniProt Q194T2); type: functional, Influenza A virus (A/California/07/2009(H1N1))
Nonstructural protein 1, sequence (Q194T2 whole entry): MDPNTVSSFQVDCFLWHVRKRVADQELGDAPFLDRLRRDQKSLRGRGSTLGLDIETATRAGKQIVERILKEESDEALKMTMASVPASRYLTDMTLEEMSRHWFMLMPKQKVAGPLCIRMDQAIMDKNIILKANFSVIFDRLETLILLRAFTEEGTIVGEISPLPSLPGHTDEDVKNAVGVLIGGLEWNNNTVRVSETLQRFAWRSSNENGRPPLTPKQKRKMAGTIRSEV

[11] = tested on: H9c2; assay: cells; type: functional, cell-based; conditions: Rattus norvegicus, H9c2, Myocardium;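 note: confirmatory concentration-response retest of ultra-high-throughput screening hits for modulation of myocardial damage; cell death induced by hydrogen peroxide oxidative stress; compound pretreatment for 60 min then peroxide exposure for 2 h; potency is for protecting the cells against peroxide damage rather than for killing them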
[12] = target: Glucose-6-phosphate 1-dehydrogenase (Homo sapiens, UniProt P11413); assay: inhibition of Homo sapiens G6PD, dose series – biochemical, fluorescence, selectivity assay for P. falciparum G6PD inhibitor project, dose response (AID 504792); type: functional
Glucose-6-phosphate 1-dehydrogenase, sequence (P11413 whole entry): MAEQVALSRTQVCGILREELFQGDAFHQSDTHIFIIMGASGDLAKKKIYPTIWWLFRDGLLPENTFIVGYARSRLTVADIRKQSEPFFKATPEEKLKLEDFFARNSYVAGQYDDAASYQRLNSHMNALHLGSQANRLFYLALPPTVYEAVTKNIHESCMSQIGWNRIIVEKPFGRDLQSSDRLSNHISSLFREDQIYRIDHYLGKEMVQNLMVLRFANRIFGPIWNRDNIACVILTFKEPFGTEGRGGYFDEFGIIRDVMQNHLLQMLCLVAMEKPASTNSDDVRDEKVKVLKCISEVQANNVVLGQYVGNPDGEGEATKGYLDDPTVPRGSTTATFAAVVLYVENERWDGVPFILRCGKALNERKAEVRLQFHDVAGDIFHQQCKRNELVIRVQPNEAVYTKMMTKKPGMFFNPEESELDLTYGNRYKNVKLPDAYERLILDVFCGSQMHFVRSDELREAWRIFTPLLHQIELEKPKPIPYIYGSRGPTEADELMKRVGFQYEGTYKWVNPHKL

[13] = target: Peroxisome proliferator-activated receptor gamma/Nuclear receptor coactivator 3 (Homo sapiens, UniProt P37231); type: functional;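 note: agonist potency for raising coactivator recruitment to the receptor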
[14] = target: Peroxisome proliferator-activated receptor gamma/Nuclear receptor coactivator 2 (Homo sapiens, UniProt P37231); type: functional;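 note: agonist potency for raising coactivator recruitment to the receptor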
[15] = target: Cytochrome P450 3A4 (Homo sapiens, UniProt P08684);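 note: CYP3A4 tested as one member of a cytochrome P450 panel screen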
Cytochrome P450 3A4, sequence (P08684 whole entry): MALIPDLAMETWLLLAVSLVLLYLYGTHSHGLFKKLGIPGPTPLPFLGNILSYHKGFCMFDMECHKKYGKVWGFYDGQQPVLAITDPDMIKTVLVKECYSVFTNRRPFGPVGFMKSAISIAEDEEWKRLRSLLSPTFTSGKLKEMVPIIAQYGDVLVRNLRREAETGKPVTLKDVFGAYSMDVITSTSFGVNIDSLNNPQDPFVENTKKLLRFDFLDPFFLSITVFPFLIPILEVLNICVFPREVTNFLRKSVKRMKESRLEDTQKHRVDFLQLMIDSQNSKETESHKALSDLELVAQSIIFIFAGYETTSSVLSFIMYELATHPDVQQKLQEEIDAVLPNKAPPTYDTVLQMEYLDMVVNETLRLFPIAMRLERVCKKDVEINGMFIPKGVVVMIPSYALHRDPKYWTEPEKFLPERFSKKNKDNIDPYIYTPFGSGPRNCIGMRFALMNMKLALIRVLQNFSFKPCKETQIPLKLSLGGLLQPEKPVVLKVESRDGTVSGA

[16] = target: Peroxisome proliferator-activated receptor gamma/Nuclear receptor coactivator 1 (Homo sapiens, UniProt P37231); type: functional;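 note: agonist potency as compounds enhance coactivator SRC-1 recruitment to PPARgamma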
Peroxisome proliferator-activated receptor gamma/Nuclear receptor coactivator 1, sequence (P37231 whole entry): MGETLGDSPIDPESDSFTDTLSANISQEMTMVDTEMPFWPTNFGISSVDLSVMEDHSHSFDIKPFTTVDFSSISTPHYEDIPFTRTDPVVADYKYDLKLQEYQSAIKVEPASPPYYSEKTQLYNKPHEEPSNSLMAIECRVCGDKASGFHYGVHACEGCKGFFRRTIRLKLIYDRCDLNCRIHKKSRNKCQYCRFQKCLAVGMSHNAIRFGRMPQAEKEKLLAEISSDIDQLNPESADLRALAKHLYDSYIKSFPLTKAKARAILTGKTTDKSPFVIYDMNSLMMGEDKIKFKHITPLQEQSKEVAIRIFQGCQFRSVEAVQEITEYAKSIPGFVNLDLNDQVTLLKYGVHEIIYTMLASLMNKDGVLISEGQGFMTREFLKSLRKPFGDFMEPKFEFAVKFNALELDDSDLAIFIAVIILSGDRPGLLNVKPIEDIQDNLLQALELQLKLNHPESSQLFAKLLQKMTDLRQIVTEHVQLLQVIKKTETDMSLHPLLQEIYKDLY
Peroxisome proliferator-activated receptor gamma/Nuclear receptor coactivator 1, sequence (Q15788 whole entry, further chain): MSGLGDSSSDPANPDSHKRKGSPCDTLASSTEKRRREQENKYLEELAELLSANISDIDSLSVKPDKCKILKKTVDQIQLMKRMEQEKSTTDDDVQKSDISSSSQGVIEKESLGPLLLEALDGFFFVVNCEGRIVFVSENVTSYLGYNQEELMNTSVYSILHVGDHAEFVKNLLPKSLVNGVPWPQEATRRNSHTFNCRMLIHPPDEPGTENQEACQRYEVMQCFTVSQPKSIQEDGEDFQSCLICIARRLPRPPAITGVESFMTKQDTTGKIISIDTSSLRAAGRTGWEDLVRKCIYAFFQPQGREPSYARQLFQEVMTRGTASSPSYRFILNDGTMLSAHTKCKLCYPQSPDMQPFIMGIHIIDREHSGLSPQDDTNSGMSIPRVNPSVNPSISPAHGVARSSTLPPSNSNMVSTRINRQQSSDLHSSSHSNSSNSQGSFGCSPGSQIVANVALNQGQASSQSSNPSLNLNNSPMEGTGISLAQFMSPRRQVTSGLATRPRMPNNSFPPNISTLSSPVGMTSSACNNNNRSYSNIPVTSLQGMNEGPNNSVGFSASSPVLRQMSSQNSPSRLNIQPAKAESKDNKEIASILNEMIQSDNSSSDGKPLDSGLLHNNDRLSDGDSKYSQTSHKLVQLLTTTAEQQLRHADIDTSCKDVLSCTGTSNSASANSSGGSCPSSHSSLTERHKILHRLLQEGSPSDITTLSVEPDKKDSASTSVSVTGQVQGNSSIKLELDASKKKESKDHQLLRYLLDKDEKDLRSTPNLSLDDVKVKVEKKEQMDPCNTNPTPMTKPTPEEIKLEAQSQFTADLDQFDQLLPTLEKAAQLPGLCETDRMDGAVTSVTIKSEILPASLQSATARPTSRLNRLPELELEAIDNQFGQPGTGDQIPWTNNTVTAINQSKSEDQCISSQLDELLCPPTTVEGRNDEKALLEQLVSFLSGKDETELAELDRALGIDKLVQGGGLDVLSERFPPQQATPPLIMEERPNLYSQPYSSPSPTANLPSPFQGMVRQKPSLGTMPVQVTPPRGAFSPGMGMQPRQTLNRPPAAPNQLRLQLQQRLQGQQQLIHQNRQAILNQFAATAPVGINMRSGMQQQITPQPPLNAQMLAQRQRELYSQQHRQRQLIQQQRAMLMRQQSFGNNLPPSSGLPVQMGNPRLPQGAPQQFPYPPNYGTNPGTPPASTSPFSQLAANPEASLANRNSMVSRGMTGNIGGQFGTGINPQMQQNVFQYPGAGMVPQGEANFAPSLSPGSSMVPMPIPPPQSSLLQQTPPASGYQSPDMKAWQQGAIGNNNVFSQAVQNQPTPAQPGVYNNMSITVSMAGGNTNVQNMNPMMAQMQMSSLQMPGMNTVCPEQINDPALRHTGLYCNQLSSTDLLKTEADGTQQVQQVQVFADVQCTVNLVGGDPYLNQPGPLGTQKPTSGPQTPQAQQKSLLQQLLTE

[17] = Dd2 malaria parasite growth inhibition potency – SYBR Green, dry powder samples, dose response (AID 1159566); type: functional, cell-based;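 note: potency for growth inhibition with lower SYBR green DNA signal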
[18] = growth inhibition of PfATP4-mutant resistant parasites – NITD609-resistant line, SYBR Green, dry powder, dose response (AID 1159571); type: functional, cell-based;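 note: parasites synchronized at ring stage by sorbitol before testing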
[19] = P. falciparum Dd2 growth inhibitors, dose response, SYBR Green, cherry-picked samples (AID 1159567); type: functional, cell-based
[20] = growth inhibition of yeast DHODH-expressing 3D7 parasites – SYBR Green, dry powder samples, dose response (AID 1159570); type: functional, cell-based;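 note: parasite growth measured after 72 hours of compound exposure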

Cn1nnnc1SCC(=O)N1CCN(C(=O)c2ccco2)CC1
AC50 [1]: > 52 µM (inactive)

Cc1c(Cl)cccc1NC(=O)CSCc1cc(=O)[nH][nH]1
EC50 [2]: > 380 µM (inconclusive) | AC50 [3]: > 380 µM (inactive) | IC50 [4]: 62.3 µM (active)

COc1cc(CNCCc2ccc3c(c2)OCO3)cc(OC)c1OC
IC50 [5]: 127 µM (active) | CC50 [6]: 100 µM (active)

COc1ccc(C(c2c(C)n(C)n(-c3ccccc3)c2=O)c2c(C)n(C)n(-c3ccccc3)c2=O)c(OC)c1OC
AC50 [7]: 344 µM (active)

O=C1C(C2=NC(C(=O)O)C3C(=O)N(c4ccc(Cl)cc4)C(=O)C23)=C(O)c2ccccc21 (centres undefined)
IC50 [4]: 71.6 µM (active)

Cc1ccc(C(=O)CSc2nnc[nH]2)cc1
IC50 [4]: 50.5 µM (active)

CC(C)(C)c1ccc(C(=O)N2CCCC2)s1
CC50 [8]: > 20 µM (active)

Cc1cc(SCC(=O)c2ccc(O)c(O)c2)nc2ccccc12
AC50 [9]: 6.7 µM (active) | IC50 [5]: 58.2 µM (active) | CC50 [6]: 100 µM (active)

CCOC(=O)c1ccc(N2N=C(C)/C(=C/C=C/c3ccco3)C2=O)cc1
IC50 [10]: > 100 µM (active)

COc1c(O)cccc1/C=N/NC(=O)Cn1ccnc1C
IC50 [11]: > 79 µM (inactive) | IC50 [10]: 20.4 µM (active)

Cc1[nH]c2ccccc2c1/C=N/Nc1nncn1N
IC50 [12]: 44.1 µM (inactive) | IC50 [5]: 63.7 µM (active)

CN(C)c1ccc(/N=C/C=C2\N(C)c3ccccc3C2(C)C)cc1
EC50 [13]: > 79.4 µM (not active) | EC50 [14]: > 79.4 µM (not active) | IC50 [5]: 12.2 µM (active) | IC50 [10]: 13.8 µM (active) | CC50 [6]: 100 µM (active) | AC50 [15]: 15.8 µM (inconclusive) | EC50 [16]: > 79.4 µM (not active)

COc1cccc(CN2CC3(CCN(Cc4ccccn4)CC3)c3c([nH]c4cc(OC)ccc34)[C@@H]2CO)c1
AC50 [17]: 1.79 µM (active) | AC50 [18]: 2.04 µM (active) | AC50 [19]: 1.96 µM (active) | AC50 [20]: 1.71 µM (active)
